The subject of one data set is Human MSCs. Description: Human chondrocyte differentiation assay (immunostaining for type II collagen, Sox9 and COMP). It counts as cell-based. To be noted: 168 h, compound 1 μM, 7 days, vs DMSO vehicle, read-out: Biological Activity (increase in staining intensity compared to vehicle control). The procedure:
Human MSCs (50,000) were plated into each well of a 96-well plate and cultured overnight. Compounds (in DMSO solution) were added to the cells at a final concentration of 1 μM, and the cells were cultured for 7 days at 5% CO2, 37° C. The cells were fixed with 10% formalin solution at room temperature for 10 min, and immunostained using antibodies specific for type II collagen (Abcam), Sox9 (Santa Cruz) and cartilage oligomeric matrix protein (COMP, Santa Cruz), and fluorescently labeled secondary antibodies (Li-Cor). The total intensity of the staining was measured using Oddyssey CLx imaging system (Li-Cor). Vehicle (DMSO) was used as control to determine the basal level of chondrocyte differentiation. […] Representative data are shown in Table 1 [A: >50% increase in staining intensity compared to vehicle control; B: 30-50% increase in staining intensity compared to vehicle control].

A short description of data set [1]: Quantitation of compounds in rat knee joint extract after intra-articular injection (LC-MS/MS). It counts as in vivo. To be noted: knee joint extract (whole joint, acetonitrile extract), other: intra-articular injection, 30 μL of 100 μM solution, 30 μL of 100 μM intra-articular, read-out: Concentration observed in extract; for concentration at 0 h: T = 0 h; for concentration at 0.5 h: T = 0.5 h; for concentration at 1 h: T = 1 h; for concentration at 2 h: T = 2 h. The procedure:
LC-MS/MS analysis for Chondrogenesis compounds were performed using an API 3000 equipped with an Agilent 1100 HPLC and a Leap Technologies autosampler. A HPLC Phenomenex 5 micron, 100 A Luna C18 (2) analytical column with dimensions of 2.0×50 mm (Part No. 00B-4252-B0) at a temperature of 30 C, flow rate of 0.6 mL/min, injection volume of 10 uL, and a 6.0 min run time was used. Mobile phase A1 was 0.1% formic acid in water and Mobile phase B1 was 0.1% formic acid in acetonitrile. The gradient was 90% A1/10% B1 at time 0; 90% A1/10% B1 at time 1.0 min; 10% A1/90% B1 at time 2.0 min; 10% A1/90% B1 at time 4.0 min; 90% A1/10% B1 at time 4.10 min; 90% A1/10% B1 at time 6.0 min. Analytes and internal standard quantitation were performed using Multiple Reaction Monitoring (MRM) quantitation method. Listed below are specific methods used to dose and measure exposure in plasma and the observed concentration in joint extract.
Calibration standard curve was prepared by serial dilution of a concentrated, spike solution of the compound in internal standard diluents. Internal standard diluent was prepared by dissolving the internal standard compound at a certain concentration in acetonitrile. Rat knee joint samples for each time points were individually crushed and transferred into each centrifuge tube and added 1.0-mL of internal standard diluent. Each centrifuge tube was vortexed and centrifuged for 30 minutes. From each tube, supernatant was removed and injected onto the column for analysis. In addition, plasma samples were obtained by retro-orbital bleeds into heparin coated tubes and stored at −80 C and later processed by analogy to the protocol described above for rat plasma samples.
30 μL of 100 μM compound solution (PBS with 0.1% DMSO) was injected into the intra-articular space of the right hinder knee of each animal. The animals were euthanized at indicated time points (0 hr, 0.5 hr, 1 hr, 2 hr, 4 hr and 6 hr). Four animals were used for each timepoint. The injected knee joints were harvested, flash freeze in liquid nitrogen. The whole joints were grounded into powder while frozen, mixed with 1 mL internal standard-containing acetonitrile, incubated at 4° C. overnight, vortexed and centrifuged for 30 min. The supernatant from each sample was analyzed using LC-MS/MS. Data shown in Table 2 indicates the observed concentration in knee extract. ND=Not determined.

Turning to `COCCc1ccc(NC(=O)c2ccccc2C(=O)O)cc1` [Compound 21], the activation at 1 µM in the data set on Human MSCs is > 50%. Moreover, in data set [1], the concentration at 0 h was 0.433 µg/mL, the concentration at 0.5 h came out at 0.0091 µg/mL, the concentration at 1 h was found to be 0.0049 µg/mL and the concentration at 2 h was 0 µg/mL.

For `CC1COCCN1S(=O)(=O)c1ccccc1NC(=O)c1ccc(F)cc1` (stereo not shown) [Compound 128], the activation at 1 µM in the data set with Human MSCs is > 50%. Also, in data set [1], the concentration at 0 h was 7.28 µg/mL, the concentration at 0.5 h was 2.94 µg/mL, the concentration at 1 h came to 1.36 µg/mL and the concentration at 2 h was 0.546 µg/mL.

In the case of `CN(Cc1cccc(NC(=O)c2ccccc2C(=O)O)c1)S(C)(=O)=O` [Compound 73], in the data set on Human MSCs, the activation at 1 µM was > 50%. In data set [1], the concentration at 0 h is 0.587 µg/mL, the concentration at 0.5 h turned out to be 0.0285 µg/mL, the concentration at 1 h worked out at 0.00941 µg/mL and the concentration at 2 h was 0.0026 µg/mL.

Regarding `N#Cc1ccc(C(=O)Nc2ccccc2S(=O)(=O)N2CCOCC2)cc1` [Compound 62], in the data set on Human MSCs, the activation at 1 µM is > 50%. Moreover, in data set [1], the concentration at 0 h was determined as 0.411 µg/mL, the concentration at 0.5 h is 0.109 µg/mL, the concentration at 1 h came to 0.0526 µg/mL and the concentration at 2 h was 0.0157 µg/mL.

`CS(=O)(=O)c1ccc(C(=O)Nc2ccccc2S(=O)(=O)N2CCOCC2)cc1` [Compound 113]: in the data set on Human MSCs, the activation at 1 µM was > 50%. Besides, in data set [1], the concentration at 0 h was 0.566 µg/mL, the concentration at 0.5 h was 0.0253 µg/mL, the concentration at 1 h came to 0.0042 µg/mL and the concentration at 2 h was determined as 0 µg/mL.

For the compound `COCCc1ccc(NC(=O)c2ccccc2NS(=O)(=O)c2ccccc2)cc1` [Compound 156], the activation at 1 µM with Human MSCs is > 50%. In data set [1], the concentration at 0 h turned out to be 0.109 µg/mL, the concentration at 0.5 h came out at 0.0035 µg/mL, the concentration at 1 h was found to be 0 µg/mL and the concentration at 2 h is 0 µg/mL.

On to `COCCc1ccc(NC(=O)c2ccccc2NS(C)(=O)=O)cc1` [Compound 117], for which the activation at 1 µM with Human MSCs is > 50%. Besides, in data set [1], the concentration at 0 h came out at 0.925 µg/mL, the concentration at 0.5 h was 0.0506 µg/mL, the concentration at 1 h turned out to be 0.0044 µg/mL and the concentration at 2 h was found to be 0 µg/mL.

In the case of `CNS(=O)(=O)c1ccc(N2Cc3ccccc3C2=O)cc1` [Compound 27], the activation at 1 µM in the data set with Human MSCs was > 50%. Besides, in data set [1], the concentration at 0 h was determined as 0.592 µg/mL, the concentration at 0.5 h is 0.0354 µg/mL, the concentration at 1 h was 0.0063 µg/mL and the concentration at 2 h was 0.0025 µg/mL.

These data come from patent US9452170B2, “Compounds and methods for inducing chondrogenesis” (The California Institute for Biomedical Research, priority 2013, dated 2016).
